According to US7541364B2, “Pyridomorphinans, pyridazinomorphinans and use thereof” (priority 2003, dated 2009):
Like-named read-outs stand apart in the source and are kept apart here.

Assays:
[1] = molecular target: T1, opioid δ receptor (Rattus norvegicus, UniProt P33533); experiment: Opioid δ receptor binding, [3H]DADLE displacement in rat brain membranes; conditions: displacement of [3H]DADLE (1.3-2.0 nM), rat brain membranes, 100 nM DAMGO to block μ sites; read-out: Ki (nM) ± SEM δ
T1 construct: Rat membranes are prepared each day using a partially thawed frozen rat brain; from tissue; host or cells: rat brain membranes
T1 sequence (P33533 whole entry): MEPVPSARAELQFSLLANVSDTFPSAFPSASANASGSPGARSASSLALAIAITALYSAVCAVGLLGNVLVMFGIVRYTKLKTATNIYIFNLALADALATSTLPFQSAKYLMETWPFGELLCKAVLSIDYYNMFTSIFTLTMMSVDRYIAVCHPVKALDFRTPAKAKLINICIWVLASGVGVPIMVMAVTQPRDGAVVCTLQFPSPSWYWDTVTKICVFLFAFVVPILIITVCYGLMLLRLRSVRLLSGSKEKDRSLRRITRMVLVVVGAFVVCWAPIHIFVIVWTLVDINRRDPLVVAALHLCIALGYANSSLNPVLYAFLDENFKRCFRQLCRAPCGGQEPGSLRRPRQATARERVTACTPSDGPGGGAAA

[2] = molecular target: T2, δ receptor (mouse vas deferens) (Mus musculus, UniProt P32300); experiment: Mouse vas deferens (MVD) smooth muscle bioassay; conditions: inhibition of electrically stimulated contractions; read-out: agonist activity MVD (δ) IC50
T2 sequence (P32300 whole entry): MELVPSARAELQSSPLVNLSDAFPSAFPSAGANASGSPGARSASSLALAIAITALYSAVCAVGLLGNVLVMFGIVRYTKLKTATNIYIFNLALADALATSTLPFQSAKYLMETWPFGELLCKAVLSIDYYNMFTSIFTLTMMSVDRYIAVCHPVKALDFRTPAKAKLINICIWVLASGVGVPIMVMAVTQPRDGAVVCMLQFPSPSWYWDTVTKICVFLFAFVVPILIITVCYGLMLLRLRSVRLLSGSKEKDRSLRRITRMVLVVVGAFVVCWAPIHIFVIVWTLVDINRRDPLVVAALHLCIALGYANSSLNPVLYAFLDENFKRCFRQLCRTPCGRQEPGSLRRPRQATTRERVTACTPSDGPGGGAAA
Procedure: (§1) Bioassays in Smooth Muscle Preparations. The functional activity profiles of selected ligands are also determined in the mouse vas deferens (MVD) and guinea pig ileum (GPI) smooth muscle preparations as described previously.
(§2) The agonist activity is determined by the ability of the compound to inhibit electrically stimulated contractions of the GPI and MVD. The GPI is primarily a μ receptor preparation, even though the ileum does also contain κ receptors. In the MVD, the opioid effects are predominantly mediated through δ receptors, but μ and κ receptors also exist in this tissue.
(§3) Tissues came from male ICR mice weighing 25-40 g and male Hartley guinea pigs weighing 250-500 g. The tissues are tied to gold chain with suture silk, suspended in 20 mL baths containing 37° C. oxygenated (95% O2, 5% CO2) Krebs bicarbonate solution (magnesium free for the MVD), and allowed to equilibrate for 15 min. The tissues are then stretched to optimal length previously determined to be 1 g tension (0.5 g for MVD) and allowed to equilibrate for 15 min. The tissues are stimulated transmurally between platinum wire electrodes at 0.1 Hz, 0.4 ms pulses (2-ms pulses for MVD), and supramaximal voltage. […] Tissues not producing typical results are not used. Experimental compounds were added to the baths in 14-60 μL volumes. Succeeding doses of agonist are added cumulatively to the bath at 3 min intervals to produce a concentration-response curve. The tissues are then washed extensively with fresh buffer until the original contraction height is reestablished. […] The tissues are then washed with fresh buffer for 30 min, and the agonist dose-response curve was repeated. Rightward shifts in the dose-response curves are calculated by dividing the antagonized dose-response curve IC50 value by the unantagonized IC50 value. IC50 values represent the mean of two to four tissues. IC50 estimates and their associated standard errors are determined by using a computerized nonlinear least-squares method. (MINSQ Least Squares Parameter Estimation, version 3.05; MicroMath Inc., 1999.)

[3] = tested on: mice; experiment: 55° C. tail-flick antinociception test in mice; conditions: for naloxone sensitivity: naloxone 10 mg/kg ip, -10 min, yes = greater than 80% reduction in the antinociceptive effect
Procedure: Analgesic Testing and Assessment of Tolerance Development. The analgesic activity of selected ligands is tested in mice using the 55° C. tail-flick test as previously described. (See Wells et al., supra.) The test compounds are administered by the intracerbroventricular (icv) route. […] To determine whether the analgesic activity of the tested compounds is mediated through opioid receptors, the blockade of antinociceptive activity by pretreatment with naloxone is carried out. The analgesic activity was considered as naloxone sensitive if greater than 80% reduction in the antinociceptive response is observed.
Antinociceptive Studies. Male ICR mice (Harlan) are used for all evaluations. Mice are housed in a temperature and humidity controlled vivarium on a 12:12 h light:dark cycle with unlimited access to food and water prior to the formal procedures. […] The dihydrochloride salt of 7h is dissolved in water and injected in a volume of 5 μL. All other compounds are dissolved in 100% DMSO and injected in a volume of 5 μL. Antinociceptive assays are performed at various times after injection.
Percent antinociception is calculated using the formula: % MPE (maximal possible effect)=100×(test−control)/(cutoff−control) where control is the predrug observation, test is the postdrug observation, and cutoff is the maximal length of stimulus allowed (10 s for 55° C. tail-flick). Antinociceptive A50 values and 95% confidence intervals are determined using linear regression software (FlashCalc). Opioid activity of the test compounds are assessed by pretreating animals with naloxone (10 mg/kg ip, −10 min) followed by an icv injection of an approximate A90 dose of test compound. […] Antinociception is assessed in the 55° C. tail-flick test at 10, 20 and 30 min. A positive response to a fixed dose of naloxone is indicated when greater than 80% reduction in the antinociceptive effect of the agonist is observed.

[4] = molecular target: T3, opioid μ receptor (Rattus norvegicus, UniProt P33535)
T3 sequence (P33535 whole entry): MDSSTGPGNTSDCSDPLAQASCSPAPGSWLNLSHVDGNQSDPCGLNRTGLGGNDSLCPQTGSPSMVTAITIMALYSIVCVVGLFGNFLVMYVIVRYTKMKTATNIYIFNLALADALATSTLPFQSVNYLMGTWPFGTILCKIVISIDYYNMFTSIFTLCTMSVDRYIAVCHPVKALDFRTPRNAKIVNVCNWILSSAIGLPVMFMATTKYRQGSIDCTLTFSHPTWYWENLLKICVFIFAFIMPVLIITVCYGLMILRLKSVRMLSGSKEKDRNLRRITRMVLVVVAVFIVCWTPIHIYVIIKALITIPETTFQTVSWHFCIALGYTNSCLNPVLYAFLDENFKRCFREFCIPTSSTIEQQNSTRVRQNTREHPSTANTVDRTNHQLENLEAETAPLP

[5] = molecular target: T4, opioid κ receptor (Cavia porcellus, UniProt P41144)
T4 sequence (P41144 whole entry): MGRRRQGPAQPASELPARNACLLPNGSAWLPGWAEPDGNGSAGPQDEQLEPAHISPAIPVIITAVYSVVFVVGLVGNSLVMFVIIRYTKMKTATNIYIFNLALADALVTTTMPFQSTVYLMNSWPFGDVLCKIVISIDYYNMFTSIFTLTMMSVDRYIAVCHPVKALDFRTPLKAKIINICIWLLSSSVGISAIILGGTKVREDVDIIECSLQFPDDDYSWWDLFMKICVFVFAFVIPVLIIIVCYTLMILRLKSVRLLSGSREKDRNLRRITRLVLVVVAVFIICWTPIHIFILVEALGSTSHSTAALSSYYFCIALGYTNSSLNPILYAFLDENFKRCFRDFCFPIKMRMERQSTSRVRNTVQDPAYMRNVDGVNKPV

[6] = molecular target: κ receptor (Cavia porcellus, UniProt P41144); conditions: read-out: antagonist activity apparent Ki (nM ± SD) κ
κ receptor, sequence (P41144 whole entry): as above

[7] = molecular target: δ receptor (Cavia porcellus, UniProt A0A286XTF2); experiment: biochemical
δ receptor, sequence (A0A286XTF2 1-366): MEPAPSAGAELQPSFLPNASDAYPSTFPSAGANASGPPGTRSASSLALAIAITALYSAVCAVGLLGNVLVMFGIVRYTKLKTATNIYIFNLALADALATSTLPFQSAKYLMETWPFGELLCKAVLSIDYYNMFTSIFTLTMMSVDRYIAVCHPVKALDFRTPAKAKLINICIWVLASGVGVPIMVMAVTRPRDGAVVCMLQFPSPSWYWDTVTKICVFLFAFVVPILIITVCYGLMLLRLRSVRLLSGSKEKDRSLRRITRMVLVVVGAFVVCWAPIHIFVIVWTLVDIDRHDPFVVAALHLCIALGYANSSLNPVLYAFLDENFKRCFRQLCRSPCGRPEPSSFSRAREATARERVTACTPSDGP

[8] = molecular target: T5, μ receptor (Cavia porcellus, UniProt A0ACM8Q262); experiment: biochemical; conditions: read-out: agonist activity Emax % μ
T5 sequence (A0ACM8Q262 1-400): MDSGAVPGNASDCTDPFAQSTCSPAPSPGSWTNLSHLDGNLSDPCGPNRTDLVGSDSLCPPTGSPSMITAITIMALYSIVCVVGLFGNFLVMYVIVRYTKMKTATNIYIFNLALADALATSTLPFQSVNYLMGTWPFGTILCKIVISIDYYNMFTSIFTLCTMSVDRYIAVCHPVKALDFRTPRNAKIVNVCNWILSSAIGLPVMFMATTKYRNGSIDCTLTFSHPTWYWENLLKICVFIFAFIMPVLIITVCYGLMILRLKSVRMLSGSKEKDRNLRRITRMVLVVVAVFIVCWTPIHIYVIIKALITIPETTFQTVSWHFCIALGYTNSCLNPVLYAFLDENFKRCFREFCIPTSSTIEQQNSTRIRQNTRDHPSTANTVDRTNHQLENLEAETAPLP

[9] = tested on: mice; experiment: Tolerance regimen, repeated icv injections, tail-flick assay; conditions: A90 doses icv twice daily for 3 days, tail-flick on day 4; FIG. 4
Source text: Tolerance Regimen. […] Antinociceptive dose-response curves in the tail-flick assay are generated on the morning of the fourth day using the procedures outlined above.

[10] = molecular target: T2, δ receptor (mouse vas deferens); experiment: Mouse vas deferens (MVD) smooth muscle bioassay; design: from tissue; host or cells: mouse vas deferens (male ICR mice)
Procedure: as §1, §2, §3

[11] = molecular target: T1, opioid δ receptor; conditions: read-out: Ki (nM) ± SEM δ; [3H]DADLE, rat brain membranes; data from Ananthan et al. (I); cited from earlier work
[12] = molecular target: T2, δ receptor (mouse vas deferens); conditions: percentage inhibition of contraction at 1 μM; data from Ananthan et al. (I); cited from earlier work
[13] = molecular target: μ receptor (guinea pig ileum) (Cavia porcellus, UniProt A0ACM8Q262); conditions: data from Ananthan et al. (I), cited from earlier work
μ receptor (guinea pig ileum), sequence (A0ACM8Q262 1-400): as above

[14] = molecular target: T3, opioid μ receptor; conditions: data from Ananthan et al. (I), cited from earlier work
[15] = molecular target: T4, opioid κ receptor; conditions: data from Ananthan et al. (I), cited from earlier work
[16] = molecular target: T2, δ receptor (mouse vas deferens); design: from tissue; host or cells: mouse vas deferens (male ICR mice); conditions: DPDPE as agonist; data from Ananthan et al. (I); cited from earlier work
[17] = molecular target: T5, μ receptor; conditions: guinea pig caudate membranes; Xu et al.; cited from earlier work
[18] = tested on: mice; conditions: icv or ip administration in mice; Wells et al.; cited from earlier work
[19] = tested on: mice; conditions: icv or ip administration in mice; Wells et al.; cited from earlier work; remark: listed apart in the source
[20] = molecular target: human μ receptors (Homo sapiens, UniProt P35372); conditions: cloned cells expressing human μ receptors; Xu et al.; cited from earlier work
human μ receptors, sequence (P35372 whole entry): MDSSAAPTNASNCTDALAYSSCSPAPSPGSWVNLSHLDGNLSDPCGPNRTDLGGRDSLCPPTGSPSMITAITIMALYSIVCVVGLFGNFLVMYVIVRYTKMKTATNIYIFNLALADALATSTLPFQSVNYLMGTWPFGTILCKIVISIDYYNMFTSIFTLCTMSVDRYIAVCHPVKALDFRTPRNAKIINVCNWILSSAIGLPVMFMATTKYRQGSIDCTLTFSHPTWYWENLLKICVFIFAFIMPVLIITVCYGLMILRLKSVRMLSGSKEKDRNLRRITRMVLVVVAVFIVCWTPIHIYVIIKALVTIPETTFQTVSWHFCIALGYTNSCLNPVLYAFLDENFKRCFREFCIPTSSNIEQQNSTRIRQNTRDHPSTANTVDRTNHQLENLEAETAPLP

[21] = tested on: mice; conditions: repeated ip injections; Wells et al.; cited from earlier work

CN1CC[C@]23c4c5ccc(O)c4O[C@H]2c2ncc(-c4ccc(Cl)cc4)cc2C[C@H]3[C@H]1C5 [7h, 5′-(4-Chlorophenyl)-6,7-didehydro-4,5α-epoxy-3-hydroxy-17-methylpyrido[2′,3′:6,7]morphinan]
Ki [1]: 4.4 ± 0.2 nM
IC50 [2]: 565 ± 12.7 nM
A50 ([3]; icv, mouse tail-flick, at time of peak drug effect): 42.8 nmol
A50 potency value in the tail flick assay ([3]; mice, full agonist efficacy, FIG. 2): 21.9
naloxone sensitivity [3]: yes
blockade of antinociceptive activity by μ selective antagonist β-FNA ([3]; β-FNA 19 nmol, icv, -24 h, FIG. 3): completely blocked
selectivity ratio μ/δ ([4]; ratio of binding Ki values): 34
Ki ([4]; read-out: Ki (nM) ± SEM μ, displacement of [3H]DAMGO (1.4-3.0 nM), rat brain membranes): 148 ± 9.5 nM
selectivity ratio κ/δ ([5]; ratio of binding Ki values): 18
Ki ([5]; read-out: Ki (nM) ± SEM κ, displacement of [3H]U69,593 (1.2-[…]), guinea pig brain membranes): 78 ± 13 nM
Ki [6]: 333 ± 25 nM
Ki [7]: 11 nM
Emax [8]: 48 ± 2%
shift in antinociceptive A50 value after repeated injections [9]: less than 1.1 fold
Kb [10]: 21.9 ± 2.14 nM

Oc1ccc2c3c1OC1c4ncc(-c5ccccc5)cc4CC4(O)C(C2)N(CC2CC2)CCC314 (stereo not shown) [2b]
Ki [11]: 0.87 ± 0.07 nM
agonist activity MVD (δ) % max resp [12]: 4.7%
antagonist activity GPI (μ) Ke ([13]; PL-017 as agonist): 43 ± 6.6 nM
agonist activity GPI (μ) % max resp ([13]; percentage inhibition of contraction at 1 μM): 0%
selectivity ratio μ/δ [14]: 16
Ki ([14]; read-out: Ki (nM) ± SEM μ, [3H]DAMGO, rat brain membranes): 13.5 ± 1 nM
selectivity ratio κ/δ [15]: 20
Ki ([15]; read-out: Ki (nM) ± SEM κ, [3H]U69,593, guinea pig brain membranes): 17.6 ± 1.6 nM
antagonist activity MVD (δ) Ke [16]: 3.7 ± 1.0 nM

Oc1ccc2c3c1O[C@H]1c4ncc(-c5ccc(Cl)cc5)cc4C[C@@]4(O)[C@@H](C2)N(CC2CC2)CC[C@]314 [2c]
% nociception @ 100 nmol ([3]; icv, 100 nmol, mouse tail-flick): 21% @ 100 nmol^f
naloxone sensitivity [3]: yes
Ki [6]: 11.2 ± 0.44 nM
μ agonist activity in [35S]GTP-γ-S binding [17]: failed to display μ agonist activity
agonist activity MVD (δ) % max resp [12]: 21%
analgesic activity in the tail-flick assay [18]: partial agonist activity
analgesic activity in the acetic acid writhing assay [19]: full agonist activity
μ agonist activity in [35S]GTP-γ-S binding [20]: failed to display μ agonist activity
tolerance to antinociceptive effects [21]: did not produce tolerance
Ki [7]: 0.184 nM
